Read-outs that look alike come from different tables or passages of the source.
Legend:
[1] = test system: Luc-40L mesothelioma cancer cells; experiment: Luc-40L mesothelioma model, survival (Example 4); type: in vivo, mouse; details: VIC-008 20 μg and/or AMD3100 1 μg/g body weight once a week for four weeks
[2] = test system: Luc-AE17 mesothelioma cancer cells; experiment: Luc-AE17 mesothelioma model, survival (Example 4); type: in vivo, mouse; details: VIC-008 20 μg and/or AMD3100 1 μg/g body weight once a week for four weeks
[3] = test system: 40L mouse mesothelioma cell line; experiment: 40L intraperitoneal malignant mesothelioma model: tumor weight and survival (Example 5); type: in vivo; details: VIC-008 20 μg per mouse, AMD3100 1 mg/kg i.p. weekly x4
[4] = test system: AE17 mouse mesothelioma cell line; experiment: AE17 intraperitoneal malignant mesothelioma model: tumor weight and survival (Example 5); type: in vivo; details: VIC-008 20 μg per mouse, AMD3100 1 mg/kg i.p. weekly x4
[5] = test system: 40L mouse mesothelioma cell line; experiment: Immune profiling by flow cytometry of tissues from 40L tumor-bearing mice; type: in vivo; details: for Proportion of CD8+ T cells in total live cells compared to saline: one week after last treatment
[6] = test system: AE17 mouse mesothelioma cell line; type: in vivo; details: for Proportion of CD8+ T cells in total live cells compared to saline: one week after last treatment
[7] = test system: 40L mouse mesothelioma cell line; experiment: Ex vivo restimulation with recombinant mesothelin, intracellular IFN-γ in CD8+ T cells, 40L mice; details: splenic CD8+ T cells, restimulated with recombinant mesothelin ex vivo
[8] = test system: AE17 mouse mesothelioma cell line; experiment: Ex vivo restimulation with recombinant mesothelin, intracellular IFN-γ in CD8+ T cells, AE17 mice; details: restimulated with recombinant mesothelin ex vivo
[9] = test system: GFP-Foxp3 expressing CD4+ splenocytes (Treg cells); details: AMD3100 5 μg/ml, 24 hours

Which results are given for c1cc(CN2CCCNCCNCCCNCC2)ccc1CN1CCCNCCNCCCNCC1 [AMD3100]?
Survival of tumor-bearing mice compared to saline [1]: slight effect on survival; Survival of tumor-bearing mice compared to saline [2]: slight effect on survival; Animal survival compared to saline [3]: only modest benefit to survival; Animal survival compared to saline [4]: only modest benefit to survival; Proportion of PD-1-expressing CD8+ T cells compared to saline ([5]; spleens): significantly fewer; Proportions of Treg cells ([5]; spleens): did not alter; Proportion of CD8+ T cells in total live cells compared to saline ([5]; spleens): did not increase; IL-2+ CD40L+ cells among the Foxp3+ CD25− Treg population ([5]; tumors): significantly more cells; Proportion of PD-1-expressing CD8+ T cells compared to saline ([5]; tumors): significantly fewer; Proportions of Treg in tumors compared to saline ([5]; tumors): significantly decreased; Ratio of CD8+ T cells to Treg in tumors compared to saline ([5]; tumors): increased; Ratio of CD25− cells to CD25+ cells within the Foxp3+ population ([5]; tumors): significantly increased; Proportion of CD8+ T cells in total live cells compared to saline ([5]; tumors): did not increase; Cell ratio of CD8+ T cells to Treg cells compared to saline ([6]; lymph nodes): significantly increased; IL-2+ CD40L+ cells among the Foxp3+ CD25− Treg population ([6]; lymph nodes): significantly more cells; Proportion of PD-1-expressing CD8+ T cells compared to saline ([6]; lymph nodes): significantly fewer; Ratio of CD25− cells to CD25+ cells within the Foxp3+ population ([6]; lymph nodes): significantly increased; Treg in the lymph nodes ([6]; lymph nodes): generally reduced; Proportion of CD8+ T cells in total live cells compared to saline ([6]; lymph nodes): did not increase; Proportion of PD-1-expressing CD8+ T cells compared to saline ([6]; spleens): significantly fewer; Proportion of CD8+ T cells in total live cells compared to saline ([6]; spleens): did not increase; Proportion of PD-1-expressing CD8+ T cells compared to saline ([6]; tumors): significantly fewer; Proportions of Treg in tumors compared to saline ([6]; tumors): significantly decreased; Ratio of CD8+ T cells to Treg in tumors compared to saline ([6]; tumors): increased; Proportion of CD8+ T cells in total live cells compared to saline ([6]; tumors): did not increase; Mesothelin-specific IFN-γ expression in CD8+ T cells compared to saline [7]: did not enhance; Mesothelin-specific IFN-γ expression in CD8+ T cells compared to saline ([8]; lymph node CD8+ T cells): did not enhance; Mesothelin-specific IFN-γ expression in CD8+ T cells compared to saline ([8]; splenic CD8+ T cells): did not enhance; Ratio of the proportion of CD25− cells to CD25+ cells in the Foxp3+ CD4+ population ([9]; no anti-CD3/CD28 stimulation): did not change; Conversion of Foxp3+ CD25− Treg into IL-2+ CD40L+ cells ([9]; with anti-CD3/CD28 antibodies (1 μg/ml), P=0.0015): converted more; Ratio of the proportion of CD25− cells to CD25+ cells in the Foxp3+ CD4+ population ([9]; with anti-CD3/CD28 antibodies (1 μg/ml), P=0.0017): significantly increased
